Assays:
[1] = tested on: platelets (agglutination with fibrinogen-coated beads); assay: Ultegra rapid platelet-function assay (RPFA-ASA); type: cell-based, human; details: baseline 159 ± 27
Protocol: (§1) None of them received aspirin or any other anti-platelet agents. All subjects underwent blood sampling after at least 30 minutes of rest and 2 or more hours of fasting. Blood was drawn between 8 and 10 a.m. in order to avoid any diurnal influence and sampled from an antecubital vein using a 21-gauge butterfly needle containing 3.8% sodium citrate (1:9 volume) after having discarded the first 1.5 ml of free running blood. Eleven Vacutainer tubes (4.5 ml) were collected for a total of 49 ml of whole blood-citrate mixture from each study participant. One tube was kept as an internal control and was incubated with buffer solution. […] To avoid possible observer bias, blood samples were coded and blinded. Sampling procedures, and platelet studies were performed by individuals unaware of the protocol.
A rapid platelet-function assay cartridge test (RPFA-ASA, Ultegra® Accumetrics, Inc., San Diego, Calif., USA), using polystyrene beads coated cartridges with lyophilized human fibrinogen-coated microparticles, and propyl gallat served as an agonist. The whole blood citrate mixture was added to the cartridge, and agglutination between platelets and coated beads was recorded. The data mirrored turbidometric platelet aggregation and reflected the degree of platelet prostaglandin blockade. Smith J W, et al., Circulation 1999; 99: 620-625. Ultegra® assays were performed in duplicate. An electronic quality control test was performed on each instrument every day of use prior to performing any subject samples.

[2] = tested on: platelet/endothelial tetraspan antigen -3 (PETA-3, CD151); assay: Whole blood flow cytometry, PETA-3 expression; type: cell-based, human; details: for Expression of platelet/endothelial tetraspan antigen -3 (PETA-3, CD151): baseline 88.7 ± 24.2
Protocol: as §1
(§2) The expression of platelet receptors was determined by using the following monoclonal antibodies: CD31 (platelet endothelial cell adhesion molecule (PECAM-1), CD41 (glycoprotein [GP] IIb/IIIa, (IIb (3), CD42b (GP Ib), CD 51/CD61 ((v (3, or vitronectin receptor), CD62p (P-selectin), CD107a (lysosome associated membrane protein-1; LAMP-1), CD 107b (LAMP-2), CD151 (platelet/endothelial tetraspan antigen-3; PETA-3), and PAC-1 for fibrinogen-platelet (PharMingen, San Diego, Calif.). Platelet-leukocyte interactions were assessed by using dual antibodies for a pan-platelet marker (CD 151), together with CD14, a monocyte/macrophage marker. The blood-citrate mixture (50 μl) was diluted with 450 μl Tris buffered saline (TBS) (10 mmol/L Tris, 0.15 mol/L sodium chloride) and mixed by gently inverting an Eppendorf tube 2 times. Five μl of the corresponding antibodies were then added to each solution and the samples were incubated for 30 minutes. After incubation, 400 μl of 2% buffered paraformaldehyde was added for fixation. The samples were analyzed by a Becton Dickinson FACScan flow cytometer set up to measure fluorescent light scatter, as described in Gurbel P A, et al., J Am Coll Cardiol. 1998; 31: 1466-1473. The data were collected in list mode files and then analyzed. P selectin was expressed as percent positive cells as described in Gurbel P A, et al, Am Heart J 2000; 139: 320-328. Other antigens were expressed as log mean fluorescence intensity.

P-selectin (CD 62p) = assay: Whole blood flow cytometry, P-selectin expression; type: cell-based, human; details: for Expression of P-selectin (CD 62p): baseline 9.1 ± 3.8
Protocol: as §1, §2

[3] = tested on: lysosome associated membrane protein -1 (LAMP-1, CD107a); assay: Whole blood flow cytometry, LAMP-1 expression; type: cell-based, human; details: baseline 8.7 ± 3.2
Protocol: as §1, §2

[4] = tested on: human platelets in whole blood; assay: Whole blood impedance platelet aggregation induced by collagen; type: cell-based; details: for Whole blood impedance platelet aggregation induced by 1 μg/ml collagen: 60 minutes at 37° C., baseline 29 ± 7
Protocol: as §1
The methods are described in detail in Abbate R, et al., Amer J Clin Pathol 1986; 86: 91-96. Briefly, the whole blood citrate mixture was diluted 1:1 with 0.5 ml TBS, then swirled gently. The cuvette with the stirring bar was placed in the incubation well and allowed to warm to 37° C. for 5 minutes. Then the sample was transferred to the assay well. An electrode was placed in the sample cuvette. Platelet aggregation was stimulated with 1 μg/ml collagen. Platelet aggregation studies were performed using a Chrono-Log Whole Blood Aggregometer using Aggrolink” software. Platelet aggregability was expressed as the change in electrical impedance and is expressed in ohms.

[5] = patients undergoing valsartan therapy; cited from earlier work
[6] = tested on: human platelets (platelet-rich plasma); assay: Platelet-rich plasma aggregation induced by 5 μM epinephrine; type: cell-based; details: for Platelet rich plasma platelet aggregation induced by 5 μM epinephrine: 60 minutes at 37° C., baseline 78 ± 10
Protocol: as §1
The citrate and whole blood mixture were centrifuged at 1200 g for 5 minutes in order to obtain platelet-rich plasma (PRP) which was kept at room temperature for use within 1 hour. Platelet counts were determined for each PRP sample with a Coulter Counter ZM (Coulter Co., Hialeah, Fla.). Platelet numbers were adjusted to 3.50×10 ^8/ml with homologous platelet-poor plasma. Platelet aggregation (PA) was induced by 5 μM ADP, and 5 μM epinephrine. All agonists were obtained from Chronolog Corporation (Havertown, Pa.). Aggregation studies were performed using a 4 channel Chronolog Lumi-Aggregometer (model 560-Ca). Aggregation was expressed as the maximum percentage of light transmittance change (% max) from the baseline at the end of the recording time, using platelet-poor plasma as a reference. Aggregation curves were recorded for 6 minutes and analyzed according to internationally established standards. Ruggeri Z M, Semin Hemat 1994; 31: 229-239.

## CC(O)CCC(=O)N(Cc1ccc(-c2ccccc2-c2nnn[nH]2)cc1)[C@H](C(=O)O)C(C)C (stereo partly drawn) [Valeryl 4-hydroxy valsartan, (S)-2{(4-Hydroxy-pentanoyl)-[2′-(1H-tetrazol-5-yl)-biphenyl-4-ylmethyl]amino}-3-methyl-butyric Acid]
[1]; drug 10 nM
  Ultegra Analyzer: 177 ± 23 platelet activation units
[1]; drug 100 nM
  Ultegra Analyzer: 181 ± 31 platelet activation units
[1]; drug 1 μM
  Ultegra Analyzer: 134 ± 29 platelet activation units
[1]; drug 10 μM
  Ultegra Analyzer: 119 ± 38 platelet activation units
[1]; drug 100 μM
  Ultegra Analyzer: 168 ± 35 platelet activation units
[2]; drug 10 nM
  Expression of platelet/endothelial tetraspan antigen -3 (PETA-3, CD151): 89.4 ± 18.2 log MFI
[2]; drug 100 nM
  Expression of platelet/endothelial tetraspan antigen -3 (PETA-3, CD151): 92.7 ± 22.2 log MFI
[2]; drug 1 μM
  Expression of platelet/endothelial tetraspan antigen -3 (PETA-3, CD151): 90.5 ± 15.7 log MFI
[2]; drug 10 μM
  Expression of platelet/endothelial tetraspan antigen -3 (PETA-3, CD151): 84.2 ± 31.1 log MFI
[2]; drug 100 μM
  Expression of platelet/endothelial tetraspan antigen -3 (PETA-3, CD151): 93.4 ± 27.4 log MFI
[2]; whole blood flow cytometry
  Effect on PETA-3 (CD151) (in words): not associated with any effect
P-selectin (CD 62p); drug 10 nM
  Expression of P-selectin (CD 62p): 9.3 ± 4.3 % of cell positivity
P-selectin (CD 62p); drug 100 nM
  Expression of P-selectin (CD 62p): 10.2 ± 5.4 % of cell positivity
P-selectin (CD 62p); drug 1 μM
  Expression of P-selectin (CD 62p): 7.3 ± 3.7 % of cell positivity
P-selectin (CD 62p); drug 10 μM
  Expression of P-selectin (CD 62p): 6.9 ± 4.2 % of cell positivity
P-selectin (CD 62p); drug 100 μM
  Expression of P-selectin (CD 62p): 8.9 ± 3.8 % of cell positivity
P-selectin (CD 62p); whole blood flow cytometry
  Effect on P-selectin on platelet surface (in words): significantly diminished
[3]; drug 10 nM
  Expression of lysosome associated membrane protein -1 (LAMP-1, CD107a): 10.2 ± 3.6 log MFI
[3]; drug 100 nM
  Expression of lysosome associated membrane protein -1 (LAMP-1, CD107a): 9.0 ± 4.0 log MFI
[3]; drug 1 μM
  Expression of lysosome associated membrane protein -1 (LAMP-1, CD107a): 6.6 ± 2.9 log MFI
[3]; drug 10 μM
  Expression of lysosome associated membrane protein -1 (LAMP-1, CD107a): 5.8 ± 3.2 log MFI
[3]; drug 100 μM
  Expression of lysosome associated membrane protein -1 (LAMP-1, CD107a): 8.0 ± 3.4 log MFI
[4]; 1 μM collagen as printed in text, within the range of therapeutic activity
  Effect on collagen-induced platelet aggregation in whole blood (in words): inhibited aggregation
[4]; drug 10 nM
  Whole blood impedance platelet aggregation induced by 1 μg/ml collagen: 32 ± 8 ohms
[4]; drug 100 nM
  Whole blood impedance platelet aggregation induced by 1 μg/ml collagen: 31 ± 9 ohms
[4]; drug 1 μM
  Whole blood impedance platelet aggregation induced by 1 μg/ml collagen: 14 ± 6 ohms
[4]; drug 10 μM
  Whole blood impedance platelet aggregation induced by 1 μg/ml collagen: 16 ± 8 ohms
[4]; drug 100 μM
  Whole blood impedance platelet aggregation induced by 1 μg/ml collagen: 17 ± 8 ohms
[5]
  Level in plasma as share of valsartan levels: 10%
[6]; PRP, 5 μM epinephrine, preincubation with escalating doses 10 nM to 100 μM
  Effect on epinephrine-induced platelet aggregation (in words): inhibited epinephrine-induced aggregation in concentration 1 μM and 10 μM
[6]; drug 10 nM
  Platelet rich plasma platelet aggregation induced by 5 μM epinephrine: 77 ± 10%
[6]; drug 100 nM
  Platelet rich plasma platelet aggregation induced by 5 μM epinephrine: 76 ± 9%
[6]; drug 1 μM
  Platelet rich plasma platelet aggregation induced by 5 μM epinephrine: 54 ± 11%
[6]; drug 10 μM
  Platelet rich plasma platelet aggregation induced by 5 μM epinephrine: 56 ± 13%
[6]; drug 100 μM
  Platelet rich plasma platelet aggregation induced by 5 μM epinephrine: 52 ± 9%
[6]; one study patient, incubation with 1 μM
  Effect on epinephrine-induced aggregation, FIG. 1 aggregation curves (in words): blocks epinephrine-induced aggregation
